Laboratory results reported in PubChem BioAssay AID1259407 (Chemical Carcinogenesis Research Information System (CCRIS), 2018).
Activity calls are given as the source filed them. No rule for the calls is given here.

Tested on: CCRIS mutagenicity, Ames/micronucleus/aberration tests
Test: CCRIS mutagenicity studies
[1] = Test System: AMES SALMONELLA TYPHIMURIUM, Strain/Indicator: TA98, Metabolic Activation: NONE, Method: PREINCUBATION
[2] = Test System: AMES SALMONELLA TYPHIMURIUM, Strain/Indicator: TA100, Metabolic Activation: NONE, Method: PREINCUBATION
[3] = Test System: AMES SALMONELLA TYPHIMURIUM, Strain/Indicator: TA1535, Metabolic Activation: NONE, Method: PREINCUBATION
[4] = Test System: AMES SALMONELLA TYPHIMURIUM, Strain/Indicator: TA1537, Metabolic Activation: NONE, Method: PREINCUBATION
[5] = Test System: AMES SALMONELLA TYPHIMURIUM, Strain/Indicator: TA98, Metabolic Activation: NONE, Method: STANDARD PLATE
[6] = Test System: AMES SALMONELLA TYPHIMURIUM, Strain/Indicator: TA100, Metabolic Activation: NONE, Method: STANDARD PLATE

OC[P+](CO)(CO)CO
mutagenic call (End Point: IN VITRO CHROMOSOMAL ABERRATIONS, Test System: CHO CELLS, Metabolic Activation: NONE): active; positive
mutagenic call (Test System: AMES SALMONELLA TYPHIMURIUM, Strain/Indicator: TA97, Metabolic Activation: HAMSTER, LIVER, S-9, AROCLOR 1254 (10%), Method: PREINCUBATION): inactive; negative
mutagenic call (Test System: AMES SALMONELLA TYPHIMURIUM, Strain/Indicator: TA97, Metabolic Activation: HAMSTER, LIVER, S-9, AROCLOR 1254 (30%), Method: PREINCUBATION): inactive; negative
mutagenic call (Test System: AMES SALMONELLA TYPHIMURIUM, Strain/Indicator: TA97, Metabolic Activation: NONE, Method: PREINCUBATION): inactive; negative
mutagenic call (Test System: AMES SALMONELLA TYPHIMURIUM, Strain/Indicator: TA97, Metabolic Activation: RAT, LIVER, S-9, AROCLOR 1254 (10%), Method: PREINCUBATION): inactive; negative
mutagenic call (Test System: AMES SALMONELLA TYPHIMURIUM, Strain/Indicator: TA97, Metabolic Activation: RAT, LIVER, S-9, AROCLOR 1254 (30%), Method: PREINCUBATION): inactive; negative
mutagenic call (Test System: AMES SALMONELLA TYPHIMURIUM, Strain/Indicator: TA98, Metabolic Activation: HAMSTER, LIVER, S-9, AROCLOR 1254 (10%), Method: PREINCUBATION): inactive; negative
mutagenic call (Test System: AMES SALMONELLA TYPHIMURIUM, Strain/Indicator: TA98, Metabolic Activation: HAMSTER, LIVER, S-9, AROCLOR 1254 (30%), Method: PREINCUBATION): inactive; negative
mutagenic call (Test System: AMES SALMONELLA TYPHIMURIUM, Strain/Indicator: TA98, Metabolic Activation: HAMSTER, LIVER, S-9, AROCLOR 1254, Method: PREINCUBATION): inactive; negative
mutagenic call [1]: inactive; negative
mutagenic call (Test System: AMES SALMONELLA TYPHIMURIUM, Strain/Indicator: TA98, Metabolic Activation: RAT, LIVER, S-9, AROCLOR 1254 (10%), Method: PREINCUBATION): inactive; negative
mutagenic call (Test System: AMES SALMONELLA TYPHIMURIUM, Strain/Indicator: TA98, Metabolic Activation: RAT, LIVER, S-9, AROCLOR 1254 (30%), Method: PREINCUBATION): inactive; negative
mutagenic call (Test System: AMES SALMONELLA TYPHIMURIUM, Strain/Indicator: TA98, Metabolic Activation: RAT, LIVER, S-9, AROCLOR 1254, Method: PREINCUBATION): inactive; negative
mutagenic call (Test System: AMES SALMONELLA TYPHIMURIUM, Strain/Indicator: TA100, Metabolic Activation: HAMSTER, LIVER, S-9, AROCLOR 1254 (10%), Method: PREINCUBATION): inactive; negative
mutagenic call (Test System: AMES SALMONELLA TYPHIMURIUM, Strain/Indicator: TA100, Metabolic Activation: HAMSTER, LIVER, S-9, AROCLOR 1254 (30%), Method: PREINCUBATION): inactive; negative
mutagenic call (Test System: AMES SALMONELLA TYPHIMURIUM, Strain/Indicator: TA100, Metabolic Activation: HAMSTER, LIVER, S-9, AROCLOR 1254, Method: PREINCUBATION): inactive; negative
mutagenic call [2]: inactive; negative
mutagenic call (Test System: AMES SALMONELLA TYPHIMURIUM, Strain/Indicator: TA100, Metabolic Activation: RAT, LIVER, S-9, AROCLOR 1254 (10%), Method: PREINCUBATION): inactive; negative
mutagenic call (Test System: AMES SALMONELLA TYPHIMURIUM, Strain/Indicator: TA100, Metabolic Activation: RAT, LIVER, S-9, AROCLOR 1254 (30%), Method: PREINCUBATION): inactive; negative
mutagenic call (Test System: AMES SALMONELLA TYPHIMURIUM, Strain/Indicator: TA100, Metabolic Activation: RAT, LIVER, S-9, AROCLOR 1254, Method: PREINCUBATION): inactive; negative
mutagenic call (Test System: AMES SALMONELLA TYPHIMURIUM, Strain/Indicator: TA1535, Metabolic Activation: HAMSTER, LIVER, S-9, AROCLOR 1254 (10%), Method: PREINCUBATION): inactive; negative
mutagenic call (Test System: AMES SALMONELLA TYPHIMURIUM, Strain/Indicator: TA1535, Metabolic Activation: HAMSTER, LIVER, S-9, AROCLOR 1254 (30%), Method: PREINCUBATION): inactive; negative
mutagenic call (Test System: AMES SALMONELLA TYPHIMURIUM, Strain/Indicator: TA1535, Metabolic Activation: HAMSTER, LIVER, S-9, AROCLOR 1254, Method: PREINCUBATION): inactive; negative
mutagenic call [3]: inactive; negative
mutagenic call (Test System: AMES SALMONELLA TYPHIMURIUM, Strain/Indicator: TA1535, Metabolic Activation: RAT, LIVER, S-9, AROCLOR 1254 (10%), Method: PREINCUBATION): inactive; negative
mutagenic call (Test System: AMES SALMONELLA TYPHIMURIUM, Strain/Indicator: TA1535, Metabolic Activation: RAT, LIVER, S-9, AROCLOR 1254 (30%), Method: PREINCUBATION): inactive; negative
mutagenic call (Test System: AMES SALMONELLA TYPHIMURIUM, Strain/Indicator: TA1535, Metabolic Activation: RAT, LIVER, S-9, AROCLOR 1254, Method: PREINCUBATION): inactive; negative
mutagenic call (Test System: AMES SALMONELLA TYPHIMURIUM, Strain/Indicator: TA1537, Metabolic Activation: HAMSTER, LIVER, S-9, AROCLOR 1254 (10%), Method: PREINCUBATION): inactive; negative
mutagenic call (Test System: AMES SALMONELLA TYPHIMURIUM, Strain/Indicator: TA1537, Metabolic Activation: HAMSTER, LIVER, S-9, AROCLOR 1254 (30%), Method: PREINCUBATION): inactive; negative
mutagenic call (Test System: AMES SALMONELLA TYPHIMURIUM, Strain/Indicator: TA1537, Metabolic Activation: HAMSTER, LIVER, S-9, AROCLOR 1254, Method: PREINCUBATION): inactive; negative
mutagenic call [4]: inactive; negative
mutagenic call (Test System: AMES SALMONELLA TYPHIMURIUM, Strain/Indicator: TA1537, Metabolic Activation: RAT, LIVER, S-9, AROCLOR 1254 (10%), Method: PREINCUBATION): inactive; negative
mutagenic call (Test System: AMES SALMONELLA TYPHIMURIUM, Strain/Indicator: TA1537, Metabolic Activation: RAT, LIVER, S-9, AROCLOR 1254 (30%), Method: PREINCUBATION): inactive; negative
mutagenic call (Test System: AMES SALMONELLA TYPHIMURIUM, Strain/Indicator: TA1537, Metabolic Activation: RAT, LIVER, S-9, AROCLOR 1254, Method: PREINCUBATION): inactive; negative
mutagenic call (Test System: MOUSE LYMPHOMA, Strain/Indicator: L5178Y (TK+/TK-), Metabolic Activation: NONE, Method: SUSPENSION/PLATE): active; positive

Cc1ccccc1S(N)(=O)=O
mutagenic call [1]: inactive; negative
mutagenic call (Test System: AMES SALMONELLA TYPHIMURIUM, Strain/Indicator: TA98, Metabolic Activation: RAT LIVER S-9, PHENOBARBITAL AND BETA-NAPHTHOFLAVONE, Method: PREINCUBATION): inactive; negative
mutagenic call [2]: inactive; negative
mutagenic call (Test System: AMES SALMONELLA TYPHIMURIUM, Strain/Indicator: TA100, Metabolic Activation: RAT LIVER S-9, PHENOBARBITAL AND BETA-NAPHTHOFLAVONE, Method: PREINCUBATION): inactive; negative
mutagenic call [3]: inactive; negative
mutagenic call (Test System: AMES SALMONELLA TYPHIMURIUM, Strain/Indicator: TA1535, Metabolic Activation: RAT LIVER S-9, PHENOBARBITAL AND BETA-NAPHTHOFLAVONE, Method: PREINCUBATION): inactive; negative
mutagenic call [4]: inactive; negative
mutagenic call (Test System: AMES SALMONELLA TYPHIMURIUM, Strain/Indicator: TA1537, Metabolic Activation: RAT LIVER S-9, PHENOBARBITAL AND BETA-NAPHTHOFLAVONE, Method: PREINCUBATION): inactive; negative
mutagenic call (Test System: AMES SALMONELLA TYPHIMURIUM, Strain/Indicator: TA1538, Metabolic Activation: NONE, Method: PREINCUBATION): inactive; negative
mutagenic call (Test System: AMES SALMONELLA TYPHIMURIUM, Strain/Indicator: TA1538, Metabolic Activation: RAT LIVER S-9, PHENOBARBITAL AND BETA-NAPHTHOFLAVONE, Method: PREINCUBATION): inactive; negative
mutagenic call (Test System: E.COLI, Strain/Indicator: WP2UVRA/PKM101, Metabolic Activation: NONE, Method: PREINCUBATION): inactive; negative
mutagenic call (Test System: E.COLI, Strain/Indicator: WP2UVRA/PKM101, Metabolic Activation: RAT LIVER S-9, PHENOBARBITAL AND BETA-NAPHTHOFLAVONE, Method: PREINCUBATION): inactive; negative
mutagenic call (Test System: E.COLI, Strain/Indicator: WP2UVRA, Metabolic Activation: NONE, Method: PREINCUBATION): inactive; negative
mutagenic call (Test System: E.COLI, Strain/Indicator: WP2UVRA, Metabolic Activation: RAT LIVER S-9, PHENOBARBITAL AND BETA-NAPHTHOFLAVONE, Method: PREINCUBATION): inactive; negative

Cc1ccc(N=Nc2c(O)ccc3ccccc23)cc1C
mutagenic call [5]: inactive; negative
mutagenic call (Test System: AMES SALMONELLA TYPHIMURIUM, Strain/Indicator: TA98, Metabolic Activation: RAT, LIVER, S-9, Method: STANDARD PLATE): inactive; negative
mutagenic call [6]: inactive; negative
mutagenic call (Test System: AMES SALMONELLA TYPHIMURIUM, Strain/Indicator: TA100, Metabolic Activation: RAT, LIVER, S-9, Method: STANDARD PLATE): inactive; negative

COc1ccc(NC(=O)c2csc([N+](=O)[O-])c2)cc1
mutagenic call [5]: active; positive
mutagenic call [6]: active; positive
